One series relates to BN02 (wild-type). Kind of series: Foliar spray response of whole plants, FIG. 2. The series is classed as in vivo, Brassica napus. The conditions noted are these: 210 g ai/ha + 0.5% v/v Merge, 3-4 leaf stage, three weeks after treatment, line BN02. Here is the method: (§1) In addition, B. napus plants (3-4 leaf stage) containing the double mutant were analyzed for response to treatment with imazamox compared to wild type plants. Lines BN02 (wild-type) and BnCL131A1 (AHAS III A122T:S653N, double mutant) were treated with either 210 g ai/ha imazamox supplemented with 0.5% v/v Merge by foliar spray or left unsprayed as checks. FIG. 2 provides the results for plants BN02 (top row) and BnCL131A1 (bottom row).

Series [1] has as its system BnCL131A1 (AHAS III A122T:S653N, double mutant). Kind of series: Foliar spray response of whole plants, FIG. 2. The series is classed as in vivo, Brassica napus. The conditions noted are these: 210 g ai/ha + 0.5% v/v Merge, 3-4 leaf stage, three weeks after treatment, line BnCL131A1. The method, then:
as §1

As for `COCc1cnc(C2=NC(C)(C(C)C)C(=O)N2)c(C(=O)O)c1` (centres unmarked) [imazamox], the “response to treatment with imazamox (tolerance)” value was “nearly non-tolerant” in the series with BN02 (wild-type) and “almost completely tolerant” in series [1].
